According to patent publication US11590110B2, “Compositions and methods for reactivating latent immunodeficiency virus using a GSK-3 inhibitor” (priority 2017, dated 2023):

How the values were obtained:
CD4+ T cells [1] = test: Example 5: CD4+ T cell viability, Cell Titer Blue assay; format: cell-based, human; conditions: 48 hours; SB-216763 and tideglusib 10/100/1000 nM; bryostatin-1 10 nM
Description: 25 μl from each well/treatment were incubated with Cell Titer Blue reagent (Promega) for 3 to 4 hours at 37° C. The assay is based on the ability of living cells to convert a redox dye (resazurin) into a fluorescent end product (resorufin). Colorimetric analysis of treated cells was done with a Perkin Elmer EnSpire 2300 Multimode plate reader set to detect fluorescence (Ex:579 nm/Em:584 nm).

NF-κB (p65) = test: Example 5: NF-κB (p65) binding with target DNA sequences, ELISA; format: cell-based, human; conditions: 1 μM
Description: To determine the specific NF-κB p65 DNA binding activity of treated CD4^+ T cells, an aliquot of the same nuclear extracts used for the p65/TBP western blots were submitted to the Transcription Factor Assay kit (Abcam, catalogue no. ab133112). Following the manufactures instructions sequentially, nuclear extracts were incubated in the TFA 96 well plate coated with double strand DNA NF-κB oligos. The wells were washed then incubated with primary anti-p65 antibody that is then detected by incubation with HRP conjugated secondary antibody. Developing reagents are added and absorbance is read at 450 nm. The level of absorbance indicates the DNA binding activity. For each donor experiment, binding specificity controls include a NF-κB competitor dsDNA control well and a non-specific binding control well. The assay was performed on 3 different donor samples.

CD4+ T cells [2] = test: Example 5: basal and compensatory glycolysis, Seahorse glycolytic rate assay; format: cell-based, human; conditions: 1 μM; 24 hours
Description: ECAR was determined using the Seahorse SF Glycolytic Rate Assay Kit (Agilent, 103344-100) and a Seahorse XF96 Extracellular Flux Analyzer (Seahorse Bioscience). Resting (2×10^5 per well) were seeded onto Cell-Tak-coated wells (354240; Corning) in buffered Seahorse XF RPMI medium (Agilent, 103576-100) supplemented with 10 mM glucose, 2 mM L-glutamine, 1 mM pyruvate and 5 mM HEPES (pH 7.4). Measurements were obtained under basal conditions and after adding 0.5 μM rotenone/antimycin A (103015-100; Seahorse Bioscience), and 2-deoxy-d-glucose (2-DG) at a final well concentration of 50 mM (Agilent Technologies). Basal glycolysis and Proton Efflux Rate (PER) were calculated according to. Lactate measurements were detected using the Cayman L-Lactate Assay Kit (Cayman Chemical, 70010) In brief, 24 hours post treatment, supernatant from 200.000 primary resting and activated CD4^+ T cells was harvested and measured according to the manufacturer's recommendation.

CD4+ T cells [3] = test: Example 5: lactate production analysis; format: cell-based, human; conditions: 24 hours of treatment
Description: Subsequently, media of the treated samples were tested for production of L-lactated using a Glycolysis Cell-Based Assay Kit (Cayman Chemical). This test measures the quantity of formazan, an artificial chromogenic dye that results from the reduction of tetrazolium salts in the presence of NADH in the culture media. Colored formazan absorbs between 490 and 520 nm and can be detected by a plate reader. Since lactate dehydrogenase catalyzes the reaction between NAD+ and lactate, yielding pyruvate and NADH, which directly reduces the tetrazolium salt, the quantity of formazan produced is proportional to the quantity of L-lactate in the culture medium, and is thus an indirect measurement of glycolysis. In order to determine specific L-Lactate concentration, a standard curve was obtained analyzing absorbance of known concentration of L-lactate as indicated in the manufacturer's protocol.

CD8+ T cells = test: Example 5: CD8 T-cell viability and cytotoxic effector functions; format: cell-based, human
Description: After drug treatment, human PBMCs were cultured in complete RPMI in the presence of CD107a-BV650 (1:50, 328637, BioLegend) or CD107a-FITC antibodies (1:50, 555800, BD Bioscience) and PMA/ionomycin (50 ng/ml and 1 uM) dor 3.5 hours, adding Brefeldin A and Monensin (eBioscience) for the last hour. Cells were subsequently stained for viability using the viability dyes eFluor 506, (eBioscience) according to the provided protocol. After surface marker staining with the following antibodies (all at 1:100 dilution): CD3-APC-H7 (560176; BD Biosciences), CD8-V450 (560347; BD Biosciences), CD45RA-APC (17-0458; eBioscience), and CCR7-PE-Cy7 (557648; BD Biosciences), cells were permeabilized and fixed using the Foxp3/Transcription Factor Fixation/Permeabilization Concentrate and Diluent kit (eBioscience). Intracellular staining was performed with IFN-γ-PerCP-Cy5.5 antibody (1:100, 560704, BD Bioscience) in FOXP3 perm/wash buffer for 1 h at 4° C. After washing and fixation of the cells in 1% paraformaldehyde/PBS, cells were analyzed by flow cytometry. Final data stems from having gated on CD8hi- and CD8lo-expressing T cells.

NK cells = test: Example 5: NK cell viability and cytotoxic effector functions; format: cell-based, human
Description: Density centrifugation using a Ficoll-Hypaqua gradient was performed to purify PBMCs from continuous-flow centrifugation leukapheresis product. Subsequently, cells were plated in 96-well U-bottom plated in complete RPMI, which was supplemented with 10 ng/ml recombinant IL-15 (R&D systems), treated with LRAs or vehicle controls (DMSO) and incubated at 37° C., 5% CO2 for 48 h. To assay NK cell functionality, cells were analyzed by flow cytometry. Briefly, 1×10^6 cells/200 ul were stained with FITC anti-CD107 antibodies (1:50, BD Biosciences), mixed with 1×10^5 K562 cells and incubated at 37° C., 5% CO2 for 1 h. Then, in order to enhance intracellular cytokine staining, protein transport was blocked with Brefeldin A (Sigma-Aldrich) and golgi stop (BD Biosciences) according to the manufacturer instructions and the cells were incubated at 37° C., 5% CO2 for another 5 h. Afterwards, cells were spun down (5 min, 330×g, RT), the supernatant was removed and the cells were stained using Zombie violet (1:50, Biolegend) according to the manufacturer protocol. Subsequently, cells were stained for surface proteins staining with the following antibodies: APC/Cy7 anti CD3 (1:100, Biolegend), APC anti CD14 (1:100, Biolegend), APC anti CD19 (1:100, Biolegend), PE/Cy7 anti CD56 (1:100, BD Biosciences), Alexa Fluor 700 anti CD16 (1:100, Biolegend), PE anti CD7 (1:50, Thermo Fisher Scientific) for 15 min at room temperature. Next, cells were permeabilized and fixed using the Foxp3/Transcription Factor Fixation/Permeabilization Concentrate and Diluent kit (eBioscience) and stained intracellularly with PerCP/Cy5 anti IFN-γ (1:50, BD Bioscience) in FOXP3 perm/wash buffer for 1 h at 4° C. Finally, cells were washed and fixed in 1% paraformaldehyde/PBS, and subjected to flow cytometry analysis on a LSRII (BD Biosciences). Data were obtained using FlowJo software (Treestar). Samples were gated for singlets, live, CD3 negative, CD14/CD19 negative and CD7 positive cells as previously described (York, Milush). CD16high/CD56dim, CD16dim/CD56high cells were considered for analysis of IFN-γ and CD107a positivity. All gates were defined, based on fluorescence minus one (FMO) samples.

[4] = tested on: primary CD4+ T cells isolated from fresh human tonsils; test: CD69 transcripts in primary CD4+ T cells from fresh human tonsils; format: cell-based; conditions: 2-day treatment
[5] = pre-treatment 1 μM 48 hours, then PMA/ionomycin
[6] = pre-treatment 1 μM 48 hours, then K562 cells

With `O=c1sn(-c2cccc3ccccc23)c(=O)n1Cc1ccccc1` [Tideglusib, 4-benzyl-2-(naphthalen-1-yl)-1,2,4-thiadiazolidine-3,5-dione] the “CD4+ T-cell viability” value (CD4+ T cells [1]) was “does not reduce viability”, the p65/DNA binding (NF-κB (p65)) was “time-dependent increase” and the “basal glycolysis, mean value” (CD4+ T cells [2]) was 17.43 pmol/min. The “compensatory glycolysis, response to Rot/AA” value (CD4+ T cells [2]) was “did not result in an increase”, the “L-lactate in the culture media” value (CD4+ T cells [3]) was “did not result in an increase of L-lactate” and the “viability of CD8+ T cells” value (CD8+ T cells; 48 hours) was “did not reduce viability”. For the same molecule, the “IFN-γ production in CD8+ T cells” value (CD8+ T cells; [5]) was “increase in IFN-γ production”, the “surface expression of CD107a in CD8+ T cells” value (CD8+ T cells; [5]) was “increased surface expression of CD107a” and the “viability of NK cells” value (NK cells; 48 hours) was “did not reduce viability”. The “IFN-γ production in NK cells” value (NK cells; [6]) was “increase in IFN-γ production”, the “increase of surface expression of CD107a in NK cells” value (NK cells; [6]) was “less marked” and the “expression of CD69 transcripts” value [4] was “reduces expression of CD69 transcripts”.
